# Assay: Stability of cream formulation: HPLC assay of solamargine
# Assay type: physicochemical
# Conditions: cream with 5% urea, 10% salicylic, 25°C, 60% RH
# Method: Visual appearance was conducted by comparison to standard commercially available solamargine cream composition. High-Performance Liquid Chromatography (HPLC) to determine quantity of solamargine in the cream, substantially as described in WO 2000061153 A1.
compound,measurement,setting,value
"C[C@@H]1CC[C@@]2(NC1)O[C@H]1C[C@H]3[C@@H]4CC=C5C[C@@H](O[C@@H]6O[C@H](CO)[C@@H](O[C@@H]7O[C@@H](C)[C@H](O)[C@@H](O)[C@H]7O)[C@H](O)[C@H]6O[C@@H]6O[C@@H](C)[C@H](O)[C@@H](O)[C@H]6O)CC[C@]5(C)[C@H]4CC[C@]3(C)[C@H]1[C@@H]2C [Solamargine, (22R,25R)-spiro-5-en-3β-yl-α-L-rhamnopyranosyl-(1→2glu)-O-α-L-rhamnopyranosyl-(1→4glu)-β-D-gluco-pyranose]",HPLC Assay Solamargine,"10% lactic acid, 1% Xanthan gum, 0 months",20.6 μg/g cream
same,HPLC Assay Solamargine,"10% lactic acid, 1% Xanthan gum, 3 months",23.1 μg/g cream
same,HPLC Assay Solamargine,"10% lactic acid, 1% Xanthan gum, 6 months",19.8 μg/g cream
same,HPLC Assay Solamargine,"10% lactic acid, 1% Xanthan gum, 9 months",21.2 μg/g cream
same,HPLC Assay Solamargine,"10% lactic acid, 1% Xanthan gum, 12 months",23.1 μg/g cream
same,HPLC Assay Solamargine,"10% lactic acid, 1% Xanthan gum, 18 months",20.4 μg/g cream
same,HPLC Assay Solamargine,"10% lactic acid, 1% Xanthan gum, 24 months",22.1 μg/g cream
same,HPLC Assay Solamargine,"10% lactic acid, 1% Xanthan gum, 36 months",19.8 μg/g cream
same,HPLC Assay Solamargine,"10% lactic acid, 1% Xanthan gum, 42 months",19.6 μg/g cream
same,HPLC Assay Solamargine,"10% lactic acid, 1% Xanthan gum, 48 months",21.2 μg/g cream
same,HPLC Assay Solamargine,"no lactic acid, no emulsion-stabilising agent, 0 months",18.3 μg/g cream
same,HPLC Assay Solamargine,"no lactic acid, no emulsion-stabilising agent, 3 months",19 μg/g cream
same,HPLC Assay Solamargine,"no lactic acid, no emulsion-stabilising agent, 6 months",21.1 μg/g cream
same,HPLC Assay Solamargine,"no lactic acid, no emulsion-stabilising agent, 9 months",9.2 μg/g cream
same,HPLC Assay Solamargine,"no lactic acid, no emulsion-stabilising agent, 12 months",7.3 μg/g cream
same,HPLC Assay Solamargine,"no lactic acid, no emulsion-stabilising agent, 18 months",6.8 μg/g cream
same,HPLC Assay Solamargine,"no lactic acid, no emulsion-stabilising agent, 24 months",5.1 μg/g cream
same,HPLC Assay Solamargine,"no lactic acid, no emulsion-stabilising agent, 36 months",5.3 μg/g cream
same,HPLC Assay Solamargine,"no lactic acid, no emulsion-stabilising agent, 42 months",5.1 μg/g cream
same,HPLC Assay Solamargine,"no lactic acid, no emulsion-stabilising agent, 48 months",5.2 μg/g cream

# Reference: patent US12357649B2, “Glycoalkaloid combinations and various uses thereof” (priority 2016, dated 2025)
